According to patent US8354424B2, “Method of treating actinic keratosis” (Medicis Pharmaceutical Corporation, priority 2005, dated 2013):

Test system: actinic keratosis lesions
Experiment: Randomized, double-blind study, eight-week treatment period, topical cream on actinic keratosis lesions on the head
Type: in vivo, human
Details: formulation with about 0.3 wt-% compound, twice per week, about 8 weeks, compared to other formulations or regimens
Description: A randomized, double-blind study was performed to evaluate single and multi-weekly doses of the formulations prepared above topically applied to actinic keratosis lesions on the head.
Otherwise healthy white (n=280) subjects (15% female, 85% male) ranging in ages 38 to 89 years of age (median age of 66.5), inclusive, with actinic keratosis lesions on the head were enrolled in the study. […] The actinic keratosis lesions areas were on the scalp (36%) and face (64%).
The study included an eight-week treatment period followed by an eight-week post-treatment period. […]
Subjects completed interval visits at treatment initiation, 1, 2, 4, and 8 weeks after treatment was initiated and at four and eight-weeks after the end of treatment. Subjects were monitored for erythema and other treatment site conditions during the entire 16 weeks of the study. Erythema, as assessed by study investigators, was defined as intense, moderate, mild, or no redness of the skin at the treatment site and given an intensity score of severe, moderate, mild, or none, respectively.
At the eight-week post-treatment visit, the treatment area was clinically evaluated for actinic keratosis lesions. Efficacy was measured as complete clearance of actinic keratosis lesions and partial clearance of actinic keratosis lesions at the eight-week post-treatment visit. […]

Cc1nc2c(N)nc3cccnc3c2n1CC(C)C [2-methyl-1-(2-methylpropyl)-1H-imidazo[4,5-c][1,5]naphthyridin-4-amine]
side effects: a low level of side effects
